Results taken from US20060089390A1, “3-benzoyl-2,4,5-substituted pyridine derivatives or salts thereof and bactericides containing the same” (Ishihara Sangyo Kaisha, Ltd., priority 2002, published 2006).
Like-named read-outs stand apart in the source and are kept apart here.

Tests used:
cucumber powdery mildew [1] = test: Test on preventive effect against cucumber powdery mildew; assay type: in vivo, Cucumber (cultivar: Suyo); conditions: Cucumis sativus, foliar spray before inoculation, examined 6 to 11 days after inoculation, read-out: controlling effects as compared with non-treated cases (area of sporogony)
Experimental: Test on Preventive Effect Against Cucumber Powdery Mildew Cucumber (cultivar: […] After the drug solution dried, the cucumber was sprayed and inoculated with a conidiospore suspension of fungi of powdery mildew, and the cucumber was kept in a thermostatic chamber at 20° C. From 6 to 11 days after the inoculation, the area of sporogony was examined.

wheat powdery mildew = test: Test on preventive effect against wheat powdery mildew; assay type: in vivo, Wheat (cultivar: Norin-61-go); conditions: Triticum aestivum, foliar spray before inoculation, examined 6 to 8 days after inoculation, read-out: controlling effects as compared with non-treated cases (area of sporogony)
Experimental: Tests on Preventive Effect Against Wheat Powdery Mildew Wheat (cultivar: […] After the drug solution dried, the wheat was inoculated by spreading with conidiospore of fungi of powdery mildew, and the wheat was kept in a thermostatic chamber at 20° C. From 6 to 8 days after the inoculation, the area of sporogony was examined.

cucumber powdery mildew [2] = test: Test on rainfastness of effect against cucumber powdery mildew; assay type: in vivo, Cucumber (cultivar: Suyo); conditions: Cucumis sativus, topical, 500 gai/ha
Experimental: Cucumber (cultivar: […] A day after the treatment, 10 mm/hr of artificial rainfall was applied for 1 hour. Together with seedlings not subjected to rainfall treatment (preventive), the cucumber was sprayed and inoculated with a conidiospore suspension of fungi of powdery mildew, and the cucumber was kept in a thermostatic chamber at 20° C. From 6 to 11 days after the inoculation, the number of lesions was examined, and the controlling rate was calculated by comparison with the non-treated cases. The results are shown in Table 5.

rice blast = test: whole plant or invertebrate; assay type: in vivo, Rice (cultivar: Nihonbare); conditions: Pyricularia oryzae, foliar, read-out: controlling effects as compared with non-treated cases (number of lesions)
[3] = 10 mm/hr artificial rainfall for 1 hour a day after treatment, read-out: Controlling rate of cucumber powdery mildew (%) Rainfall
[4] = no rainfall treatment (preventive), read-out: Controlling rate of cucumber powdery mildew (%) Preventive

Row | Compound | pest or weed control at 125 ppm (cucumber powdery mildew [1]) [%] | melting point [°C] | pest or weed control at 125 ppm (wheat powdery mildew) [%] | pest or weed control at 500 g/ha (cucumber powdery mildew [2]; [3]) [%] | pest or weed control at 500 g/ha (cucumber powdery mildew [2]; [4]) [%] | pest or weed control at 500 ppm (rice blast) [%]
1 | COc1cc(C)c(C(=O)c2c(OC)ncc(Cl)c2Br)c(OC)c1OC [Compound No. 1-1, 3-(2,3,4-trimethoxy-6-methylbenzoyl)-4-bromo-5-chloro-2-methoxypyridine] | ≥ 90 | 92 to 94 | ≥ 90 | 100 | 100 | ≥ 90
2 | COc1cc(C)c(C(=O)c2c(OC)ncc(Cl)c2Cl)c(OC)c1OC [Compound No. 1-15, 3-(2,3,4-trimethoxy-6-methylbenzoyl)-4,5-dichloro-2-methoxypyridine] | ≥ 90 | 84 to 86 | ≥ 90 | 100 | 100 | ≥ 90
